This note sets out measurements from EPA's ToxValDB 9.5 (doi:10.2903/j.efsa.2010.1906).

Converted amounts (≈) assume the structure as drawn.

One data set deals with Pimephales promelas. Particulars: chronic/long-term; duration: 34 days; reproduction.
For another data set, the system named is Landoltia sp. The following applies: acute; duration: 14 days.
The subject of another data set is Mus musculus. The following applies: chronic; histopathology: neoplastic.
The test system of a further data set is Anas platyrhynchos. The following applies: reproductive.
For a further data set, the system named is Colinus virginianus. Particulars: acute, oral, mortality.
For the next data set, the system named is Apis mellifera. The following applies: acute; duration: 48 hours; oral; unspecified; mortality.
In the next data set the test system is Bibionidae. The following applies: chronic/long-term; duration: 28 days; development.
The next data set concerns Folsomia candida. The following applies: chronic/long-term, duration: 28 days.
In a further data set the test system is Rattus norvegicus. Particulars: oral.
The subject of the next data set is Oryctolagus sp. Particulars: developmental; development.
For the next data set, the system named is Canidae. Particulars: subchronic; duration: 90 days; oral; F; Dog Other; body weight.
The next data set concerns Daphnia magna. The following applies: chronic/long-term; duration: 21 days; reproduction.
Another data set concerns Lepomis macrochirus. The following applies: acute; duration: 96 hours; mortality.

With `CCOc1cc(Oc2ccc(C(F)(F)F)cc2Cl)ccc1[N+](=O)[O-]` [Oxyfluorfen], the NOEC in the data set with Pimephales promelas is 0.038 mg/L; in the data set on Landoltia sp. it was 0.00195 mg/L; with Bibionidae, 0.08 mg/L; in the data set with Folsomia candida (reproduction), 1.25 mg/kg; in the data set with Daphnia magna it was 0.013 mg/L; in the data set on Tagia sp. (chronic/long-term, duration: 56 days) it was 24 mg/kg. The NOAEL in the data set with Mus musculus was 3 mg/kg-day; in the data set on Rattus norvegicus (chronic, duration: 2 years) it was 20 mg/kg-day; in the data set with Oryctolagus sp., 30 mg/kg-day; with Canidae, 2.17 mg/kg-day. Further, the NOEL in the data set with Anas platyrhynchos was determined as 64.7 mg/kg-day. The LD50 with Colinus virginianus (diet) was over 462 mg/kg-day; in the data set with Colinus virginianus, over 2150 mg/kg-day; with Apis mellifera, over 100 µg/piece; with Rattus norvegicus (acute, mortality) it was over 5000 mg/kg-day. Also, the LC50 in the data set on Folsomia candida (mortality) is 2.78 mg/kg; in the data set on Lepomis macrochirus it was 0.21 mg/L (≈ 0.581 µM); in the data set with Tagia sp. (acute, duration: 14 days, mortality) it was over 1000 mg/kg.
